Experimental findings from publication PMC9469100, “Turning Nonselective Inhibitors of Type I Protein Arginine Methyltransferases into Potent and Selective Inhibitors of Protein Arginine Methyltransferase 4 through a Deconstruction–Reconstruction and Fragment-Growing Approach” (Journal of Medicinal Chemistry, 2022) are described below.

Where two headings read alike, the source gives them in different places.

One data set concerns the target T1, PRMT7 (Homo sapiens, UniProt Q9NVM4).
T1 sequence (Q9NVM4 2-692): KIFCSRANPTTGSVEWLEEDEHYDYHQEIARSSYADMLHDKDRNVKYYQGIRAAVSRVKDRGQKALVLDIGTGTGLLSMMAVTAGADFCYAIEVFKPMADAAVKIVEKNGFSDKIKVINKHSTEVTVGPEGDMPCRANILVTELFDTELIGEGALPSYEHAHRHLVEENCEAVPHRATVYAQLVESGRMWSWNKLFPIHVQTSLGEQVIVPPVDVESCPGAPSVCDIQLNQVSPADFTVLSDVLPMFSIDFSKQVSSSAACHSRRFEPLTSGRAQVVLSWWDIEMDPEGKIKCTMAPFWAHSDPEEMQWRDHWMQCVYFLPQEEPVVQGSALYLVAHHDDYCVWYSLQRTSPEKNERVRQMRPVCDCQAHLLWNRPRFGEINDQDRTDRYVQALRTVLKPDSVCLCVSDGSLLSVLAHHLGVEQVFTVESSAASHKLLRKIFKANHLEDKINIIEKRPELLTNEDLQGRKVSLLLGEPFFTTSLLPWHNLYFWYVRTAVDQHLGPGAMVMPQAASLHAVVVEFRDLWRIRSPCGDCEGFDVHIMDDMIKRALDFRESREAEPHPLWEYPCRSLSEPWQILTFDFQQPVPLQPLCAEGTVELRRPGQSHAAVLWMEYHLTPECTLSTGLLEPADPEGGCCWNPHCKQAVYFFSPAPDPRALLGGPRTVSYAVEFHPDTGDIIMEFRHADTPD
The data set can be described thus: Radioisotope-based filter-binding (HotSpot) assay, PRMT7.

Another data set concerns the target PRMT3 (Homo sapiens, UniProt O60678). The data set can be described thus: Radioisotope-based filter-binding (HotSpot) assay, PRMT3.
A further data set deals with ΔN(1–60)-PRMT8 (Homo sapiens, UniProt Q9NR22). Put plainly: Radioisotope-based filter-binding (HotSpot) assay, PRMT8.
Sequence of ΔN(1–60)-PRMT8 (Q9NR22 61-394, stated change not applied): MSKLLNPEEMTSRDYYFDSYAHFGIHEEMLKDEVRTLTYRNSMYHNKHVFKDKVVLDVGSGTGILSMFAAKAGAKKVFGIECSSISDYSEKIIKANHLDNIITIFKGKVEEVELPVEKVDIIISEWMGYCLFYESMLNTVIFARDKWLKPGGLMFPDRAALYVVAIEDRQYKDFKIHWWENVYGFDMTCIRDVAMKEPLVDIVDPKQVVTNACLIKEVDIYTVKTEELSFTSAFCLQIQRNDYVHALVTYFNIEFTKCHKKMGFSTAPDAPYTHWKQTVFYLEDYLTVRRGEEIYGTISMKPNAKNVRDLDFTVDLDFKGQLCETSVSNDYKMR
The next data set concerns the target PRMT5/MEP50 complex (Homo sapiens, UniProt O14744). The data set can be described thus: Radioisotope-based filter-binding (HotSpot) assay, PRMT5.
The next data set has as its target PRMT6 (Homo sapiens, UniProt Q96LA8). The data set can be described thus: Radioisotope-based filter-binding (HotSpot) assay, PRMT6.
The target in another data set is T2, PRMT4 (Homo sapiens, UniProt Q86X55).
T2 sequence (Q86X55 2-608): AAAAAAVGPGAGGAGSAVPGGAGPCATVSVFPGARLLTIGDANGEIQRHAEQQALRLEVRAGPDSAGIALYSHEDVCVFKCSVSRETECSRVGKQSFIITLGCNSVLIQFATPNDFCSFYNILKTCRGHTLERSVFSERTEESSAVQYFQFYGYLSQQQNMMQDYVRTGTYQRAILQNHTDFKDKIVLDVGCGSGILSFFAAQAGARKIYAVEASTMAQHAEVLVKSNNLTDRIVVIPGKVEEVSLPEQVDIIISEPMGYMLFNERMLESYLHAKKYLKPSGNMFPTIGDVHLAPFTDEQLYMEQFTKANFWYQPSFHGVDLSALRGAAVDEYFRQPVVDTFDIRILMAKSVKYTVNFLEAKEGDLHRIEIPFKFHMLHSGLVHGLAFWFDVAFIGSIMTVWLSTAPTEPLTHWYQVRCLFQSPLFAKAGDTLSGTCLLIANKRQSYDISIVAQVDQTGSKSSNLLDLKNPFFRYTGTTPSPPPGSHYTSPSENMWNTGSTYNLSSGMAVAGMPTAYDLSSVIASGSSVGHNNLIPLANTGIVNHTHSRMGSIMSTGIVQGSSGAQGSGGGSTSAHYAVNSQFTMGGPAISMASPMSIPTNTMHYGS
The data set can be described thus: Radioisotope-based filter-binding (HotSpot) assay, PRMT4.

Data set [1] deals with T3, human PRMT4 (full length) (Homo sapiens, UniProt Q86X55).
T3 construct: Full-length recombinant PRMT4 (Active motif, # 81107); purchased Active motif # 81107
T3 sequence (Q86X55 1-608): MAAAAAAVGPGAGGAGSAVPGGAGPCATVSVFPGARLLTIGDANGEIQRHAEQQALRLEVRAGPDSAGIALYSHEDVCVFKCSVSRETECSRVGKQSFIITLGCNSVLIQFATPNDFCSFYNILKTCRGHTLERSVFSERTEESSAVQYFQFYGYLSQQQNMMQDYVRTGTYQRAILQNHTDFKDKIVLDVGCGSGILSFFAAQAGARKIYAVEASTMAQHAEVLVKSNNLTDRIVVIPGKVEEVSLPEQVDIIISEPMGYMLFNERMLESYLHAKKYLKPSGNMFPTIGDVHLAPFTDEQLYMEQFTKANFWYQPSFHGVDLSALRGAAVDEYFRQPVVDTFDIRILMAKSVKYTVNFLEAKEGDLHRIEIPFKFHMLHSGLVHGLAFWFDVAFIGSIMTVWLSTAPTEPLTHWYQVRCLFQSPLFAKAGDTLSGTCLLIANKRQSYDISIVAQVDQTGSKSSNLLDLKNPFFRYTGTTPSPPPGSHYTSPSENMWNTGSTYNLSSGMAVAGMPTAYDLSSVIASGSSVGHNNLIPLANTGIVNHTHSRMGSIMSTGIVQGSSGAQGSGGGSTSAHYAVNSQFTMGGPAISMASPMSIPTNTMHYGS
Put plainly: SPR binding to immobilized PRMT4. The following applies: for koff / kon: immobilized PRMT4; for kon: read-out: kon; for τR: in vitro residence time, τ = 1/koff. The procedure:
To this aim, human PRMT4 (full length) was covalently immobilized on a sensor chip surface using an amine-coupling approach, and the three compounds were injected at different concentrations over the protein surface. To reduce false positives from detergent-sensitive, nonspecific aggregation-based binding, detergents (0.05% Tween-20) were added to the running buffer in all experiments.
SPR experiments were performed on a Biacore T200 biosensor (Cytiva). PBS buffer (phosphate-buffered saline, pH 7.4) supplemented with 0.05% Tween-20 was used as the running buffer. […] One flow cell was left empty for background subtractions. […] Each compound was tested in […], prepared starting from 640 to 10 nM. Binding experiments were performed at 25 °C by using a flow rate of 30 μL/min, with 90 s monitoring of association and 90 s monitoring of dissociation. Regeneration of the surfaces was performed, when necessary, by a 10 s injection of 5 mM NaOH. […] The corrected sensorgrams for each compound were fitted simultaneously using a 1:1 Langmuir model to obtain equilibrium dissociation constants (KD) and kinetic dissociation (koff) and association (kon) constants.
In general terms: In SPR one partner is held on a chip, and binding of the other changes the refractive index at the surface.

A short description of data set [2]: Parallel artificial membrane permeability assay (PAMPA). The following applies: phosphate buffer pH 7.4, donor 0.2 mM, 24 h at room temperature. It is filed as in vitro ADME. The procedure:
A donor solution (0.2 mM) was prepared by diluting 20 mM dimethyl sulfoxide (DMSO) compound stock solution using phosphate buffer (pH 7.4, 0.01 M). Filters were coated with 5 μL of a 1% (w/v) dodecane solution of L-α-phosphatidylcholine. Donor solution (150 μL) was added to each well of the filter plate. To each well of the acceptor plate, 300 μL of solution (5% DMSO in phosphate buffer) was added. […] The sandwich was incubated for 24 h at room temperature under gentle shaking. After the incubation time, the sandwich plates were separated, and 250 μL of the acceptor plate was transferred to a UV quartz microtiter plate and measured by UV spectroscopy, using a Multiskan GO microplate spectrophotometer (Thermo Fisher Scientific) at 250–500 nm at a step of 5 nm. Reference solutions (250 μL) were prepared diluting the sample stock solutions to the same concentration as that with no membrane barrier.
(PAMPA measures passive passage across an artificial lipid membrane.)

The target of the next data set is T4, SETD8 (Homo sapiens, UniProt Q9NQR1).
T4 construct: SETD8 (residues 190–352, C-terminus); N-terminal His-tag; His (N); purchased Reaction Biology Corporation
T4 sequence (Q9NQR1 231-393): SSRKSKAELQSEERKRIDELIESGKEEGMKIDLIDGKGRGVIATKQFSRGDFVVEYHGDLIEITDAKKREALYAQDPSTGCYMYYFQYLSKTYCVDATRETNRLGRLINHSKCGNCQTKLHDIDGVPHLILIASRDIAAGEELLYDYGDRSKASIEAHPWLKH
The data set can be described thus: HotSpot KMT activity assay, SETD8. It is filed as biochemical. The following applies: 10-dose mode, 3-fold dilution starting at 100 µM; read-out: ref. cmpd. IC50 (µM), SETD8. The procedure:
(§1) Then, ^3H-SAM (final concentration 1 μM) was delivered into the reaction mixture to initiate the reaction. After incubation for 60 min at 30 °C, the reaction mixture was delivered to filter-paper for detection (as assessed by scintillation). […] No inhibitor control (DMSO) was considered as 100% enzyme activity. Data were analyzed using Excel and GraphPad Prism 6.0 software (GraphPad Software Inc., San Diego, CA). Values obtained for each compound are mean ± SD determined for two separate experiments.

Another data set concerns the target T5, ASH1L (Homo sapiens, UniProt Q9NR48).
T5 construct: ASH1L (residues 2046–2330, with an N-terminal His-tag); His (N); purchased Reaction Biology Corporation
The data set can be described thus: HotSpot KMT activity assay, ASH1L. It is filed as biochemical. Here is the method: as §1

The mark [3] stands for this setting: IC50 (μM) PRMT7, radioisotope-based filter assay, 5 μM GST-GAR, 1 μM 3H-SAM.
The mark [4] stands for this setting: read-out: IC50 (μM) PRMT3, radioisotope-based filter assay, 5 μM histone H4, 1 μM 3H-SAM.
The mark [5] stands for this setting: read-out: IC50 (μM) PRMT5, radioisotope-based filter assay, 5 μM histone H2A, 1 μM 3H-SAM.
Where [6] appears, read: read-out: IC50 (μM) PRMT6, radioisotope-based filter assay, 5 μM GST-GAR, 1 μM 3H-SAM.
Where [7] appears, read: on increasing the linker between 4-hydroxy-2-naphthoate and guanidine (values equal the ratio to the IC50 of 12c).

Sequence of PRMT5/MEP50 complex (O14744 2-637): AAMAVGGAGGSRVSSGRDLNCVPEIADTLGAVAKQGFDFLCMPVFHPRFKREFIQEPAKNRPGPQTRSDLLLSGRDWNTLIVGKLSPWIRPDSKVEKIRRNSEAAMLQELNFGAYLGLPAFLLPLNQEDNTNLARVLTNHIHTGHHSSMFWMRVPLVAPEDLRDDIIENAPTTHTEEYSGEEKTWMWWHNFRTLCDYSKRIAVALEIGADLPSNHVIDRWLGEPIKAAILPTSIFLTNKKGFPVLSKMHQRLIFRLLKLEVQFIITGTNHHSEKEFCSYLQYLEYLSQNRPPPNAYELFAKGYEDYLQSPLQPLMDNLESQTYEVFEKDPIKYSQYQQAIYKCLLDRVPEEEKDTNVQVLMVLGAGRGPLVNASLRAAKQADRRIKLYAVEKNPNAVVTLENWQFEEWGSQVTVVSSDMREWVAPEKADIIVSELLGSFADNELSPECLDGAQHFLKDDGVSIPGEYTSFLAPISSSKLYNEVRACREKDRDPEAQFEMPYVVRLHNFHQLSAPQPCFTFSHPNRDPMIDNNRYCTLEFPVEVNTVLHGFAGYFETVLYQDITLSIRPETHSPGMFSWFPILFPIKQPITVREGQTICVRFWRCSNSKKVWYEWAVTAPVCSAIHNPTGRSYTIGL
Sequence of PRMT5/MEP50 complex (Q9BQA1 2-342 partner limits assumed): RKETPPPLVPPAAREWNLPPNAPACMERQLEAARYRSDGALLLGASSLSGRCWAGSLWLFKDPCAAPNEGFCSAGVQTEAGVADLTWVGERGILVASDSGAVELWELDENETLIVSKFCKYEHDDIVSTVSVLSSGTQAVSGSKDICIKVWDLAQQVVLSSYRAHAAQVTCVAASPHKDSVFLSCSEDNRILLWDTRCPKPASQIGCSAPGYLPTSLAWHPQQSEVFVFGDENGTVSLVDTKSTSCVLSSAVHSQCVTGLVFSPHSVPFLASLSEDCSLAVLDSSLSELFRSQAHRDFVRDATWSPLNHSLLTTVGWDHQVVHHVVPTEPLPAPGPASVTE
Sequence of PRMT3 (O60678 2-531): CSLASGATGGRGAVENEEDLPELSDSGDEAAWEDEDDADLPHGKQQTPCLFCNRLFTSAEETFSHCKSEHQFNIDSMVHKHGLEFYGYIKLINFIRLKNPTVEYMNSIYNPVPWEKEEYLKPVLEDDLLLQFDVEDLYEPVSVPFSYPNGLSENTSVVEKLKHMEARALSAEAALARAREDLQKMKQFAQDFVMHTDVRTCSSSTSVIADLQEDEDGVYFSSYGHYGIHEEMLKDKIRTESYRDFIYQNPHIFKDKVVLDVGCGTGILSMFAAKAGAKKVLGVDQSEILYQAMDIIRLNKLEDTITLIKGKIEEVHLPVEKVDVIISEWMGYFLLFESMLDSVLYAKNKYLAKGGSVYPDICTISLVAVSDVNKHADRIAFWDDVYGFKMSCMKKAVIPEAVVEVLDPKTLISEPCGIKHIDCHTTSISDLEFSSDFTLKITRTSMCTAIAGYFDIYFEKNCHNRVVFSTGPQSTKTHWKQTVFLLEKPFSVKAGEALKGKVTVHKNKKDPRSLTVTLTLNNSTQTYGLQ
Sequence of PRMT6 (Q96LA8 2-375): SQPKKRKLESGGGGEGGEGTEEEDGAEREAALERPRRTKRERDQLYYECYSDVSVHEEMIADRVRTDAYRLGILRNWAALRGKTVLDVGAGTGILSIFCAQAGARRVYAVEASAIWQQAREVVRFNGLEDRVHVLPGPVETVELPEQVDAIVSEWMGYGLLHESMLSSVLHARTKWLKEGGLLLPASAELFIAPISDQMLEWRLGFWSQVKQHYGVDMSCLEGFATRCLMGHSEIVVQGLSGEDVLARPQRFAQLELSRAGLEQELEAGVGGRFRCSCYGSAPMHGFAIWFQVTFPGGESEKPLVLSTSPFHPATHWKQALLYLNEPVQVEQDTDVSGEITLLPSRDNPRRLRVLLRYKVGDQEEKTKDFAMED
Method for PRMT3: (§2) Then, ^3H-SAM (final concentration 1 μM) was delivered into the reaction mixture to initiate the reaction. After incubation for 60 min at 30 °C, the reaction mixture was delivered to filter paper for detection (as assessed by scintillation). Data were analyzed using Excel and GraphPad Prism 6.0 software (GraphPad Software Inc., San Diego, CA) for IC50 curve fits using sigmoidal dose vs response-variable slope (four parameters) equations.
Method for PRMT5/MEP50 complex: as §2
Method for PRMT6: as §2
Method for PRMT7: as §2
Method for ΔN(1–60)-PRMT8: as §2

In the case of `COC(=O)c1cc(O)c2cc(NC(=O)NCCCNC(=N)NC[C@H]3O[C@@H](n4cnc5c(N)ncnc54)[C@H](O)[C@@H]3O)ccc2c1` [12a, Methyl 6-(3-(3-(3-(((2R,3S,4R,5R)-5-(6-Amino-9H-purin-9-yl)-3,4-dihydroxytetrahydrofuran-2-yl)methyl)guanidino)propyl)ureido)-4-hydroxy-2-naphthoate], the half-maximal inhibitory concentration (IC50) (commonly the midpoint of a concentration-inhibition curve) was determined as 0.3 µM at PRMT7 (setting [3]); 0.315 µM at PRMT7 (read-out: IC50 PRMT7 (Figure 5 heatmap), radioisotope-based filter assay); 57.2 µM on PRMT3 (setting [4]); 8.29 µM at ΔN(1–60)-PRMT8 (read-out: IC50 PRMT8 (Figure 5 heatmap)); 52.1 µM on PRMT5/MEP50 complex (setting [5]); 72.8 µM at PRMT6 (setting [6]).

Consider `COC(=O)c1cc(O)c2cc(NC(=O)NCCCCCCNC(=N)NC[C@H]3O[C@@H](n4cnc5c(N)ncnc54)[C@H](O)[C@@H]3O)ccc2c1` [12d, Methyl 6-(3-(6-(3-(((2R,3S,4R,5R)-5-(6-Amino-9H-purin-9-yl)-3,4-dihydroxytetrahydrofuran-2-yl)methyl)guanidino)hexyl)ureido)-4-hydroxy-2-naphthoate], for which the IC50 at PRMT7 (setting [3]) was 0.41 µM; on PRMT7 (IC50 PRMT7 (Figure 5 heatmap), radioisotope-based filter assay), 0.413 µM; on PRMT3 (IC50 (μM) PRMT3, radioisotope-based filter assay, 5 μM histone H4, 1 μM 3H-SAM), 12.2 µM; on PRMT3 (IC50 PRMT3 (Figure 5 heatmap), radioisotope-based filter assay), 12.2 µM; at PRMT4 (IC50 (μM) PRMT4, radioisotope-based filter assay, 5 μM histone H3, 1 μM 3H-SAM), 0.068 µM; on PRMT4 (IC50 PRMT4 (Figure 5 heatmap), radioisotope-based filter assay), 0.061 µM. For the same compound, the half-maximal inhibitory concentration (IC50) amounted to 2.6 µM at PRMT5/MEP50 complex and 47 µM on PRMT6. Further, at PRMT4 (setting [7]), the “gain in the inhibitory activity against PRMT4” value was 6.2 fold. Further, at PRMT5/MEP50 complex (setting [7]), the “gain in the inhibitory activity against PRMT5” value came to 19.8 fold. Further, in [1], the Kd (in general, the concentration at which binding is half-saturated) was 2800 nM. Besides, the dissociation rate constant (koff) (as a rule, a measure of how fast the partners let go of each other) in data set [1] (SPR) turned out to be 0.76 s⁻¹. The kon (in general, the rate constant with which the complex forms) in data set [1] (SPR) amounted to 270000 M⁻¹ s⁻¹. Further, in [1], the “τR” value came out at 1.31 s.

As for `CC(C)NCC(O)COc1cccc2ccccc12` (stereo not shown) [propranolol, reference compound], in data set [2], the Papp (as a rule, a coefficient for how fast a substance crosses the barrier) at 24 h, 0.2 mM is 6 ×10⁻⁶ cm/s.

With `Cc1ccc(NC2=CC(=O)c3sc(C)nc3C2=O)cc1` [ryuv, ryuvidine, reference compound], the IC50 at SETD8 is 0.186 µM.

Turning to `CN1C(=O)[C@@]23C[C@]4([C@]56C[C@@]78SS[C@@](CO)(C(=O)N7[C@H]5Nc5ccccc56)N(C)C8=O)c5ccccc5N[C@@H]4N2C(=O)[C@]1(CO)SS3` [chaet, chaetocin, reference compound], the IC50 on ASH1L stood at 140 nM.

On to `COC(=O)c1cc(O)c2cc(NC(=O)NCCCCNC(=N)NC[C@H]3O[C@@H](n4cnc5c(N)ncnc54)[C@H](O)[C@@H]3O)ccc2c1` [12b, Methyl 6-(3-(4-(3-(((2R,3S,4R,5R)-5-(6-Amino-9H-purin-9-yl)-3,4-dihydroxytetrahydrofuran-2-yl)methyl)guanidino)butyl)ureido)-4-hydroxy-2-naphthoate], for which the IC50 was 0.55 µM on PRMT7 (read-out: IC50 (μM) PRMT7, radioisotope-based filter assay, 5 μM GST-GAR, 1 μM 3H-SAM); 43.4 µM on PRMT3 (setting [4]); 18.7 µM on ΔN(1–60)-PRMT8 (read-out: IC50 (μM) PRMT8, 5 μM histone H4, 1 μM 3H-SAM); 2.14 µM at PRMT4 (read-out: IC50 (μM) PRMT4, radioisotope-based filter assay, 5 μM histone H3, 1 μM 3H-SAM); 2.14 µM on PRMT4 (read-out: IC50 PRMT4 (Figure 5 heatmap), radioisotope-based filter assay); 76.7 µM at PRMT5/MEP50 complex (setting [5]). The 50% inhibitory concentration (IC50) at PRMT6 (setting [6]) was greater than 100 µM. In [1] (SPR), this compound had a dissociation rate constant (koff) of 0.015 s⁻¹. In addition, the dissociation constant Kd in data set [1] (SPR, immobilized PRMT4, 25 °C, KD from ratio koff/kon) amounted to 2300 nM. Further, the association rate constant (kon) in [1] (SPR) is 6520 M⁻¹ s⁻¹. The “τR” value in data set [1] was 66.7 s.
